# Patent publication US20240317711A1, “AURKA SELECTIVE DEGRADATION INDUCING COMPOUND” (UPPTHERA INC., priority 2021, published 2024)
# Biological target: T1, AURKA (Homo sapiens, UniProt O14965)
# T1 construct: An MDA-MB-231 cell line was purchased from the Korea Cell Line Bank; endogenous in cells; host or cells: MDA-MB-231
# T1 sequence (O14965 1-403): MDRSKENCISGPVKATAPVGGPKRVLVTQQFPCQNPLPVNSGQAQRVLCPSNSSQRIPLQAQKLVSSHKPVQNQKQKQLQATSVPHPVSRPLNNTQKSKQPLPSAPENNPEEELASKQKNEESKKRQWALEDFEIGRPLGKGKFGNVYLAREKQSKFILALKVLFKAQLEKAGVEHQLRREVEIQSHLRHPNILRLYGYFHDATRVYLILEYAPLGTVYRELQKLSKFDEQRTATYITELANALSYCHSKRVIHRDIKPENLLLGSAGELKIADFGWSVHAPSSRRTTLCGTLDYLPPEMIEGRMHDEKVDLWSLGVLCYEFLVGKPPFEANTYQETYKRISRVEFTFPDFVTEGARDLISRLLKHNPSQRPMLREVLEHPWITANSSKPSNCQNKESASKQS
# Experiment: Western blotting of AURKA degradation after 24 hours of compound treatment of MDA-MB-231 cell line
# Assay type: cell-based
# Settings: compound 0.1 μM, MDA-MB-231 cells, Western blot
# Text: An MDA-MB-231 cell line was purchased from the Korea Cell Line Bank. The passage of cultured cells was maintained within P50.
# For cell counting, a cell counter (Catalog #AMQAX1000) from Thermo and a 0.4% Trypan blue solution were used.
# For cell culture, there were used RPMI (Gibco, Cat. No. 22400-089; Lot. No. 2323633), FBS (Gibco, Cat. No. 16000044; Lot. No. 2454168P), Penicillin/Streptomycin (PS) (Gibco, Cat. No. 15140-122; Lot. No. 2321150), 100 mm culture plate (SPL, Cat. No. 20100), 6-well culture plate (SPL, Cat. No. 30006), PBS pH7.4 (Gibco, Cat. No. 10010-023; Lot. No. 2380329), counting chamber (Hematocytometer) (Hirschmann, Cat. No. 8100204), and 0.4% trypan blue solution (DYNEBIO, Cat. No. CBT3710; Lot. No. 20211201).
# 3×10^5 cells were seeded in each well of a 12-well plate (SPL), and the cells were cultured in a total culture medium volume of 1 mL. […]
# Next, a standard curve was obtained using the BCA assay and the protein mass in the lysate was quantified by substituting the obtained standard curve. The mixture was incubated at 37° C. for 30 minutes using 20 μL of a standard or sample solution and 200 μL of a BCA or Bradford solution, and absorbance was measured at 562 nm. […]
smiles,measurement,value
O=C1CCC(N2C(=O)c3cccc(NCCCCCCN4CCN(C(=O)Cc5ccc(Nc6ncc(F)c(Nc7ccc(C(=O)Nc8ccccc8Cl)cc7)n6)cc5)CC4)c3C2=O)C(=O)N1 (stereo not shown) [Compound 14],AURKA protein degradation activity,≥ 95%
